In US20200268703A1, “MEDICINE FOR TREATING ADVANCED OR RECURRENT CANCER PATIENT BEING NON-RESPONSIVE OR NON-TOLERANT TO STANDARD CHEMOTHERAPY AND INCURABLE AND UNRESECTABLE” (HYOGO COLLEGE OF MEDICINE, priority 2017, published 2020):

Assays:
[1] = system: advanced or recurrent oral cavity cancer; test: Tumor immunity risk index value, OS and disease course in oral cavity cancer patients given propagermanium; assay type: in vivo, human; settings: for OS: BSC median 46 days
Protocol: (§1) 30 mg of propagermanium [trade name: SEROCION (registered trademark), produced by SANWA KAGAKU KENKYUSHO CO., LTD.] was administered orally in three divided doses per day after meals to 4 patient cases (PG-1 to PG-4) who were diagnosed as advanced or recurrent oral cavity cancer which is non-responsive or non-tolerant to the standard chemotherapy and incurable and unresectable, a 2 patient cases (PG-5 and PG-6) who were diagnosed as advanced or recurrent gastric cancer which is non-responsive or non-tolerant to the standard chemotherapy [gastric cancer treatment guideline fourth edition (edited by Japan Gastric cancer Association, revised in May 2014)] and incurable and unresectable, and 5 healthy person cases (PG-7 to PG-11). 7.5 mL of peripheral blood of the cancer patients (PG-1 and PG-3: only before administration, PG-5 and PG-6: before administration and only 28th day after a start of administration) and healthy persons (all: only before the administration), were collected by a BD vacutainer blood collection tube at the time before the administration of the propagermanium and on 28th and 56th days after starting the administration. Thereafter, and the peripheral blood was centrifuged (1500 G for 15 minutes) to obtain the peripheral blood mononuclear cells (PBMC). The obtained peripheral blood mononuclear cells were fixed and stained using a T cell surface marker and a mouse IgG anti-human antibody against intracellular keratin. The stained cells were analyzed by flow cytometry using a Spectral Cell Analyzer (SP-6800, manufactured by SONY).
(§2) Regarding the T cells and the cytotoxic T cells, among living cells, CD45 positive and CD3 positive cells are separated to obtain T cells, and among the CD45 positive and CD3 positive cells, CD8 positive and CD4 negative cells are separated to obtain the cytotoxic T cells. The proportion of the cytotoxic T cells in the T cells was calculated.
(§3) In the circulating tumor cells in blood, in order to label the cytokeratin present inside the cells, after using Perm Buffer reagent (#421403, produced by BioLegend), staining was performed using a pankeratin antibody (#4523, produced by Cell Signaling). Since the circulating tumor cells in blood are larger than lymphocytes, when flow cytometry is performed, cells were selected in a wider range than in the selection of normal lymphocytes. After selecting cells negative in staining using Ghost Dye Violet 450 as living cells, pankeratin positive cells were regarded as the circulating tumor cells in blood, and the number of the pankeratin positive cells in 10000 peripheral blood mononuclear cells was calculated.
(§4) The calculated number of the pankeratin positive cells and the proportion of cytotoxic T cells in the T cells is substituted into Expression (1) below.
(§5) Number of pankeratin positive cells (pieces)/Proportion of cytotoxic T cells in T cells (%)/10 (I)
(§6) The disease of each patient was determined by an attending physician based on results of endoscopy, computed tomography (CT) examination, positron emission tomography (PET)-CT examination, magnetic resonance imaging (MRI) examination, X-ray (X-P) examination, and blood biochemistry examination including the major markers.

[2] = system: advanced or recurrent gastric cancer; test: Tumor immunity risk index value and disease course in gastric cancer patients given propagermanium; assay type: in vivo, human; settings: for Disease course / Tumor immunity risk index value: 28th day after starting administration
Protocol: as §1, §2, §3, §4, §5, §6

[3] = system: human gastric cancer cell line MKN45 (MKN45 KO cells); test: Apoptosis-inducing activity by PBMC of oral cavity cancer patient after administration of propagermanium; assay type: cell-based; settings: for Increase of apoptosis-inducing activity compared to before starting the administration: time point of 48 hours
Protocol: MKN45 KO cells obtained by fluorescently labeling human gastric cancer cell line MKN45 with Kurabira Orange (1×10^4 cells) were cultured using an RPMI 1640 medium containing 10% FBS in 35 mm dishes (Day 0). On next day (Day 1), the medium was changed to an F12-K medium (2 mL) containing 10% FBS, and in Experimental Example 5, a suspension of peripheral blood mononuclear cells (1×10^6 cells) separated from peripheral blood of the oral cavity cancer patient of PG-4 before the administration of the propagermanium and on 28th and 56th days after the administration in F12-K medium (1 mL) is added to the culture dish. Furthermore, 3 μL of IncuCyte (registered trademark) Caspase-3/7 Green Apoptpsis Reagent (Cat No. 4440, produced by Essen BioScience) was added and cultured. Time-lapse photography was performed every 10 minutes for 48 hours, by using BioStation (produced by Nikon Corporation) (Days 1 to 3). An animation was created from result of photography for 48 hours, and the numbers of viable gastric cancer cells (with orange fluorescence) at and apoptosis-induced gastric cancer cells (with green fluorescence) at the time points of 0, 8, 16, 24, 32, 40, and 48 hours were calculated respectively. When calculating the number of cells, 100 to 150 cells were targeted at time point of 48 hours, and cells of 4 to 5 fields of view were summed at 200 times observation by a microscope at each time point. In addition, at each time point, only cells that adhered to the culture dish and could be continuously observed were targeted for counting, and cells that were slightly out of an imaging field of stratified cells were excluded from counting.
The apoptosis-inducing activity (%) at each time point was calculated by using Expression (II) below.
{Number of apoptosis-induced gastric cancer cells/(Number of viable gastric cancer cells+Number of apoptosis-induced gastric cancer cells)}×100 (II)

[4] = patient PG-2 (oral cavity cancer)

## propagermanium
[1]; patient PG-1 (oral cavity cancer)
  Evaluation of the administration (effective / ineffective): ineffective
[1]; patient PG-1 (oral cavity cancer), administration discontinued midway
  OS: 39 days
[1]; patient PG-1 (oral cavity cancer), from the start of administration
  Disease course: disease got worse
[1]; [4]
  Evaluation of the administration (effective / ineffective): effective
  OS: 105 days
[1]; patient PG-2 (oral cavity cancer), 28th day after starting administration
  Disease course: disease was controlled
[1]; patient PG-2 (oral cavity cancer), 28th day after starting administration, before 0.27
  Tumor immunity risk index value: 1.70
[1]; patient PG-2 (oral cavity cancer), 56th day after starting administration, before 0.27
  Tumor immunity risk index value: 4.93
[1]; patient PG-3 (oral cavity cancer)
  Evaluation of the administration (effective / ineffective): ineffective
[1]; patient PG-3 (oral cavity cancer), administration discontinued midway
  OS: 36 days
[1]; patient PG-3 (oral cavity cancer), from the start of administration
  Disease course: disease got worse
[1]; patient PG-4 (oral cavity cancer)
  Evaluation of the administration (effective / ineffective): effective
[1]; patient PG-4 (oral cavity cancer), 28th and 56th days after starting administration
  Disease course: disease was controlled at any time point
[1]; patient PG-4 (oral cavity cancer), 28th day after starting administration, before 2.07
  Tumor immunity risk index value: 0.49
[1]; patient PG-4 (oral cavity cancer), 56th day after starting administration, before 2.07
  Tumor immunity risk index value: 1.77
[1]; patient PG-4 (oral cavity cancer), counted before the chemotherapy intervention
  OS: 85 days
[2]; patient PG-5 (gastric cancer)
  Evaluation of the administration (effective / ineffective): ineffective
  Disease course: disease progressed
[2]; patient PG-5 (gastric cancer), before 5.04
  Tumor immunity risk index value: 9.55
[2]; patient PG-6 (gastric cancer)
  Evaluation of the administration (effective / ineffective): effective
  Disease course: disease was controlled
[2]; patient PG-6 (gastric cancer), before 41.12
  Tumor immunity risk index value: 0.31
[3]; 28th day after starting administration
  Increase of apoptosis-inducing activity compared to before starting the administration: approximately 3.1 times
[3]; 56th day after starting administration
  Increase of apoptosis-inducing activity compared to before starting the administration: approximately 3.7 times
[3]; PBMC of patient PG-4, 28th day after starting administration, culture for 0 hours
  Apoptosis-inducing activity: 0.00%
[3]; PBMC of patient PG-4, 28th day after starting administration, culture for 48 hours, before administration 4.00
  Apoptosis-inducing activity: 12.50%
[3]; PBMC of patient PG-4, 56th day after starting administration, culture for 0 hours
  Apoptosis-inducing activity: 0.00%
[3]; PBMC of patient PG-4, 56th day after starting administration, culture for 48 hours, before administration 4.00
  Apoptosis-inducing activity: 14.60%
